Measurements: patent US4432993A, “Method of treating obesity hyperglycemia, inflammation and platelet aggregation” (priority 1980, dated 1984)

Tests used:
genetically obese mice = experiment: Anti-obesity activity: carcass lipid in genetically obese mice; assay type: in vivo
Protocol: The compounds were administered by oral gavage in water or carboxymethyl-cellulose suspension to genetically obese mice daily for 28 days. At the end of the time the carcass composition was determined.

[1] = tested on: Blood platelet response to collagen; experiment: Platelet aggregation inhibition activity (collagen-induced fall in blood platelet concentration); assay type: in vivo, Male CFLP mice; details: 2 h after p.o. dose; collagen 400 μg/kg i.v.; Aspirin 600 μmol (108 mg)/kg, p < 0.05; Example 3 5 μmol (1.92 mg)/kg, p = 0.01
Protocol: Male CFLP mice (ca 20 g, n=8) were dosed orally with compound or vehicle (controls) after an overnight fast. Two hours later each mouse received an intravenous dose of collagen (400 μg/kg, pH 6-6.6). Exactly 30 sec. after injection of collagen, each mouse was placed in a chamber of CO2 until respiration ceased. […] Each concentration was expressed as a percent of that obtained in a tail blood sample taken immediately before injection of collagen.

[2] = tested on: inflammation induced in the rat ear by croton oil; experiment: Anti-inflammatory activity: croton oil induced inflammation of the rat ear; assay type: in vivo; details: 2.0 mg/RAT EAR, 6 hours; activity = significant (5% level) reduction in ear weight vs non-drug treated control
Protocol: The method used is based on that described by G. Tonelli et al (Endocrinology, 77, 625-634, 1965). An inflammation is induced in the rat ear by the application of 50 μl of a 1% solution of croton oil in tetrahydrofuran, test compounds being dissolved in the irritant vehicle. After 6 hours the inflammation is assessed by killing the animals and weighing the ears. Topical anti-inflammatory activity of a compound is generally considered to be shown when a significant (5% level) reduction in ear weight is seen compared to non-drug treated control.

[3] = p.o. daily for 28 days, Ex. 5 mp 102-5: 4.8 mg/kg, control 21.10, Ex. 10: 8.6 mg/kg, control 23.13

SMILES | % Inhibition of response to collagen [1] [%] | g LIPID/MOUSE, TREATED (genetically obese mice; [3]) [g LIPID/MOUSE] | other results
Cc1ccc(CC(C)NCC(O)c2cc3ccccc3o2)cc1 (stereo not drawn) [Example 1, N-[2-(4-Methylphenyl)-1-methylethyl]-2-(2-benzofuranyl)-2-hydroxy ethanamine] | – | – | g LIPID/MOUSE, TREATED (genetically obese mice; 4.8 mg/kg p.o. daily, 15 days only, control 16.25): 13.36 g LIPID/MOUSE
COC(=O)COc1ccc(CC(C)NCC(O)c2cc3ccccc3o2)cc1 (stereo not drawn) [Example 3, N-[2-(4-Carbomethoxymethoxyphenyl)-1-methylethyl]-2-(2-benzofuranyl)-2-hydroxyethanamine] | 29 | – | –
Cc1ccc(C[C@@H](C)NC[C@@H](O)c2cc3ccccc3o2)cc1 (relative stereo) [Example 5 mp 102-5, N-[2-(4-methylphenyl)-1-methylethyl]-2-(2-benzofuranyl)-2-hydroxyethanamine] | – | 16.16 | ACTIVITY (topical anti-inflammatory) [2]: Active
Cc1ccc(CCCNCC(O)c2cc3ccccc3o2)cc1 (stereo not drawn) [Example 10, N-[3-(4-Methylphenyl)propyl]-2-(2-benzofuranyl)-2-hydroxyethanamine] | – | 19.72 | –
CC(=O)Oc1ccccc1C(=O)O [Aspirin, reference compound] | 29 | – | –
